Usually mass density stands for the mass of a sample divided by its volume.

± gives the expanded uncertainty stated by the source.

The values that follow come from the NIST ThermoML archive (doi:10.1021/acs.jced.5b00882).

The conditions of data set [1]: for mass density: 298.15 K, 101.33 kPa, Liquid, Pycnometric method.
A short description of data set [2]: Molar enthalpy of transition or fusion. The conditions noted are these: Crystal; DSC.

Turning to `CNC(=O)NC` [1,3-dimethylurea], the Triple point temperature in data set [1] (Crystal, DSC) came to 376.35 ± 0.93 K. Also, in data set [2], the “Molar enthalpy of transition or fusion” value came to 12.8 ± 0.39 kJ/mol. In the case of `CCO` [ethanol], the mass density in data set [1] amounted to 785.3 ± 1.5 kg/m3. Regarding `CO` [methanol], the mass density in data set [1] is 786.6 ± 0.6 kg/m3.

For `CCCO` [propan-1-ol], the mass density in data set [1] was 799.7 ± 1.5 kg/m3.

With `CCCCCCCCO` [octan-1-ol], the mass density in data set [1] is 821.6 ± 1.5 kg/m3. On to `CCCCO` [butan-1-ol], for which, in data set [1], the mass density came out at 806 ± 1.5 kg/m3. For `CCCCCCO` [hexan-1-ol], in data set [1], the mass density amounted to 815.7 ± 1.5 kg/m3.

For the molecule `CCCCCO` [pentan-1-ol], in data set [1], the mass density is 811.4 ± 1.5 kg/m3. Consider `CCCCCCCO` [heptan-1-ol], for which the mass density in data set [1] is 819.2 ± 1.5 kg/m3.
